This passage reports GI50 and TGI results from PubChem BioAssay (NCI).

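Interpolation was linear, between the two tested concentrations surrounding the appropriate level; five concentrations were tested over 48 hours in 96-well plates. At the GI50, growth is halved. TGI denotes the concentration required for complete inhibition of growth.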

Test systems include OVCAR-5 ovarian; MCF7 breast; 786-0 renal; TK-10 renal; RPMI-8226 leukemia; HCC-2998 colon; UACC-257 melanoma; SK-MEL-5 melanoma; U251 CNS; SR leukemia.
Common to all, as to experiment: DTP human tumour cell line panel, 48 h

Take `CC(C)C[C@H](NC(=O)CCn1ccc2ccccc2c1=O)B(O)O`: the GI50 is 18.8 µM in the assay with OVCAR-5 ovarian; 4.35 µM with MCF7 breast; 4.76 µM with 786-0 renal; 2.93 µM in the assay on TK-10 renal; 1.06 µM in the assay on RPMI-8226 leukemia; 6.08 µM in the assay with HCC-2998 colon. Further, the GI50 is 3.68 µM in the assay with UACC-257 melanoma, 4.3 µM in the assay on SK-MEL-5 melanoma, 4.23 µM with U251 CNS and 1.7 µM in the assay with SR leukemia. Besides, the concentration for total growth inhibition (TGI) was more than 100 µM in the assay with OVCAR-5 ovarian; more than 100 µM in the assay with MCF7 breast; more than 100 µM with 786-0 renal; 9.8 µM in the assay with TK-10 renal; 7.07 µM with RPMI-8226 leukemia; 21.3 µM in the assay with HCC-2998 colon. Moreover, the TGI with UACC-257 melanoma was 33.8 µM; in the assay with SK-MEL-5 melanoma it was 19 µM; in the assay on U251 CNS it was more than 100 µM; in the assay on SR leukemia it was 28.9 µM.

`C1CSCCSCCCSCCSCCCSCCSCCCSCCSC1`: the TGI in the assay on OVCAR-5 ovarian, in the assay on MCF7 breast, in the assay on 786-0 renal, in the assay on TK-10 renal, in the assay on RPMI-8226 leukemia and in the assay on HCC-2998 colon was more than 100 µM in each case. The total growth inhibition concentration (TGI) in the assay on UACC-257 melanoma, in the assay with SK-MEL-5 melanoma, with U251 CNS and in the assay with SR leukemia was more than 100 µM throughout.

Regarding `O=C(Nc1ccccc1OC(=O)c1ccccc1)c1ccccc1`, the GI50 with OVCAR-5 ovarian is 51.5 µM; in the assay with MCF7 breast, 12.9 µM; in the assay with 786-0 renal, 15.6 µM; in the assay with TK-10 renal, 31.5 µM; in the assay on RPMI-8226 leukemia, 38.6 µM; with HCC-2998 colon, 30.1 µM. The GI50 in the assay on UACC-257 melanoma was 35.1 µM; in the assay on SK-MEL-5 melanoma, 31.5 µM; with U251 CNS, 6.35 µM; with SR leukemia it was 3.12 µM. Further, the TGI in the assay on OVCAR-5 ovarian, in the assay on MCF7 breast, with 786-0 renal, in the assay on TK-10 renal, with RPMI-8226 leukemia and in the assay with HCC-2998 colon was more than 100 µM each time. Besides, the TGI in the assay on UACC-257 melanoma, in the assay on SK-MEL-5 melanoma, with U251 CNS and in the assay with SR leukemia was more than 100 µM in each case.

As for `NNc1nnc(-c2nnc(NN)o2)o1`, the total growth inhibition concentration (TGI) with OVCAR-5 ovarian, in the assay on MCF7 breast, in the assay with 786-0 renal, with TK-10 renal, with RPMI-8226 leukemia and in the assay on HCC-2998 colon was more than 10 µM each time. Further, the TGI in the assay on UACC-257 melanoma, with SK-MEL-5 melanoma, in the assay with U251 CNS and in the assay with SR leukemia was more than 10 µM in each case.

As to `O=Nc1c(-c2c(O)[nH]c3ncccc23)[nH]c2ccccc12`, the GI50 in the assay on OVCAR-5 ovarian is 96.9 µM; with MCF7 breast, 18.7 µM; in the assay on 786-0 renal it was 21.8 µM; with TK-10 renal it was 5.52 µM; in the assay on HCC-2998 colon, more than 24.4 µM; in the assay on UACC-257 melanoma it was more than 100 µM. Besides, the GI50 is 15 µM with SK-MEL-5 melanoma, more than 100 µM with U251 CNS and 0.274 µM in the assay on SR leukemia. The TGI in the assay on OVCAR-5 ovarian is more than 100 µM; with MCF7 breast it was more than 100 µM; with 786-0 renal, more than 100 µM; with TK-10 renal, more than 100 µM; in the assay with RPMI-8226 leukemia it was more than 79 µM; with HCC-2998 colon, more than 100 µM. Moreover, the concentration for total growth inhibition (TGI) with UACC-257 melanoma, in the assay on SK-MEL-5 melanoma, in the assay with U251 CNS and in the assay with SR leukemia was more than 100 µM in each case.

As to `COC(=O)c1cc(-c2ccc(OC)c(OC)c2)[nH]c1N/N=C/c1c(Cl)cccc1Cl`, the GI50 in the assay on OVCAR-5 ovarian is 1.91 µM; with MCF7 breast it was 0.301 µM; in the assay with 786-0 renal it was 0.83 µM; with TK-10 renal it was 1.64 µM; in the assay with RPMI-8226 leukemia it was 0.531 µM; in the assay on HCC-2998 colon it was 0.265 µM. For the same molecule, the GI50 was 0.723 µM in the assay with UACC-257 melanoma, 0.387 µM in the assay with SK-MEL-5 melanoma, 0.671 µM with U251 CNS and 0.394 µM in the assay with SR leukemia. For the same molecule, the TGI in the assay with OVCAR-5 ovarian was 7.42 µM; in the assay on MCF7 breast it was 1.44 µM; with 786-0 renal, 4.32 µM; in the assay on TK-10 renal, 9.47 µM; in the assay with RPMI-8226 leukemia, more than 100 µM; with HCC-2998 colon, 1.43 µM. The total growth inhibition concentration (TGI) with UACC-257 melanoma is more than 23.1 µM; in the assay with SK-MEL-5 melanoma it was 4.56 µM; with U251 CNS, 2.43 µM; in the assay with SR leukemia, more than 100 µM.

As to `O=C(NNS(=O)(=O)c1ccc(Cl)cc1Cl)c1cccnc1Nc1ccc(Cl)cc1`, the GI50 in the assay on OVCAR-5 ovarian was 26.2 µM; in the assay on MCF7 breast, 35.2 µM; in the assay on 786-0 renal, 19.6 µM; with TK-10 renal it was 28.9 µM; in the assay with RPMI-8226 leukemia it was 17.7 µM; in the assay with HCC-2998 colon, 13.6 µM. The GI50 is 22.9 µM in the assay with UACC-257 melanoma, 14.2 µM with SK-MEL-5 melanoma, 34.4 µM with U251 CNS and 14.8 µM with SR leukemia. The TGI in the assay with OVCAR-5 ovarian is 78.2 µM; with MCF7 breast, more than 100 µM; with 786-0 renal it was 49.4 µM; in the assay with TK-10 renal, 84.3 µM; in the assay with RPMI-8226 leukemia, 53.2 µM; with HCC-2998 colon it was 29 µM. For the same molecule, the TGI was 60.5 µM in the assay with UACC-257 melanoma, 29.7 µM with SK-MEL-5 melanoma, more than 100 µM with U251 CNS and 38.1 µM in the assay with SR leukemia.

As for `C[C@@H]1Cc2cc(O)ccc2[C@H]2CC[C@]3(C)/C(=C/COCCN(C)C)CC[C@H]3[C@H]12` (tested in a mixture with another compound), the GI50 in the assay with OVCAR-5 ovarian was 0.251 µM; in the assay on MCF7 breast it was less than 0.0208 µM; with 786-0 renal, 0.198 µM; in the assay on TK-10 renal, 0.209 µM; in the assay on RPMI-8226 leukemia, 0.239 µM; in the assay with HCC-2998 colon, 0.448 µM. Besides, the GI50 in the assay on UACC-257 melanoma was 0.495 µM; with SK-MEL-5 melanoma, 0.205 µM; with U251 CNS, 0.216 µM; in the assay with SR leukemia, 0.212 µM. Moreover, the TGI is 0.724 µM with OVCAR-5 ovarian; 0.612 µM with MCF7 breast; 0.618 µM with 786-0 renal; 0.461 µM in the assay with TK-10 renal; 0.694 µM in the assay with RPMI-8226 leukemia; 1.65 µM in the assay on HCC-2998 colon. Moreover, the TGI in the assay on UACC-257 melanoma was 2.01 µM; in the assay with SK-MEL-5 melanoma, 0.453 µM; with U251 CNS, 0.528 µM; in the assay on SR leukemia it was 0.55 µM.
